Where “and” joins values, the source holds several entries; their conditions need not be identical. Equal entries are not always repeated.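 Cells were grown in 96-well plates and exposed to each compound for 48 hours at five concentrations; endpoints were interpolated linearly between bracketing concentrations, or set to the highest concentration if not reached. GI50 = concentration required for 50% inhibition of growth. Definition used: TGI = concentration required for complete inhibition of growth.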
What was measured:
Test in all cases: NCI tumour cell line growth inhibition, 48 h
786-0 renal = test system: 786-0 renal
A498 renal = test system: A498 renal
A549 NSCLC = test system: A549 NSCLC
ACHN renal = test system: ACHN renal
BT-549 breast = test system: BT-549 breast
CAKI-1 renal = test system: CAKI-1 renal
CCRF-CEM leukemia = test system: CCRF-CEM leukemia
COLO 205 colon = test system: COLO 205 colon
DU-145 prostate = test system: DU-145 prostate
EKVX NSCLC = test system: EKVX NSCLC
HCC-2998 colon = test system: HCC-2998 colon
HCT-116 colon = test system: HCT-116 colon
HCT-15 colon = test system: HCT-15 colon
HL-60(TB) leukemia = test system: HL-60(TB) leukemia
HOP-62 NSCLC = test system: HOP-62 NSCLC
HOP-92 NSCLC = test system: HOP-92 NSCLC
HT29 colon = test system: HT29 colon
IGROV1 ovarian = test system: IGROV1 ovarian
K-562 leukemia = test system: K-562 leukemia
KM12 colon = test system: KM12 colon
LOX IMVI melanoma = test system: LOX IMVI melanoma
MALME-3M melanoma = test system: MALME-3M melanoma
MCF7 breast = test system: MCF7 breast
MDA-MB-231 breast = test system: MDA-MB-231 breast
MDA-MB-468 breast = test system: MDA-MB-468 breast
MOLT-4 leukemia = test system: MOLT-4 leukemia
NCI-H226 lung = test system: NCI-H226 lung
NCI-H23 lung = test system: NCI-H23 lung
NCI-H460 lung = test system: NCI-H460 lung
NCI-H522 lung = test system: NCI-H522 lung
OVCAR-3 ovarian = test system: OVCAR-3 ovarian
OVCAR-4 ovarian = test system: OVCAR-4 ovarian
OVCAR-5 ovarian = test system: OVCAR-5 ovarian
OVCAR-8 ovarian = test system: OVCAR-8 ovarian
PC-3 prostate = test system: PC-3 prostate
RPMI-8226 leukemia = test system: RPMI-8226 leukemia
RXF 393 renal = test system: RXF 393 renal
SF-268 CNS = test system: SF-268 CNS
SF-295 CNS = test system: SF-295 CNS
SF-539 CNS = test system: SF-539 CNS
SK-MEL-28 melanoma = test system: SK-MEL-28 melanoma
SK-MEL-5 melanoma = test system: SK-MEL-5 melanoma
SK-OV-3 ovarian = test system: SK-OV-3 ovarian
SN12C renal = test system: SN12C renal
SNB-19 CNS = test system: SNB-19 CNS
SNB-75 CNS = test system: SNB-75 CNS
SR leukemia = test system: SR leukemia
SW-620 colon = test system: SW-620 colon
T-47D breast = test system: T-47D breast
TK-10 renal = test system: TK-10 renal
U251 CNS = test system: U251 CNS
UACC-257 melanoma = test system: UACC-257 melanoma
UACC-62 melanoma = test system: UACC-62 melanoma
UO-31 renal = test system: UO-31 renal

In the case of `COc1cccc(C(N)=Nc2ccc(OCCCCCCn3cncn3)cc2)c1`, the GI50 (786-0 renal) is reported as 0.628 µM, the TGI (786-0 renal) is reported as greater than 100 µM and the GI50 (A498 renal) is reported as 26.1 µM. For the same compound, the TGI (A498 renal) was greater than 100 µM, the GI50 (A549 NSCLC) was 2.86 µM and the TGI (A549 NSCLC) was greater than 100 µM. The GI50 (ACHN renal) was 4.26 µM, the TGI (ACHN renal) was greater than 100 µM and the GI50 (BT-549 breast) was 0.957 µM. The TGI (BT-549 breast) was greater than 100 µM, the GI50 (CAKI-1 renal) was 0.909 µM and the TGI (CAKI-1 renal) was greater than 100 µM. It also gave a GI50 (CCRF-CEM leukemia) of 1.04 µM, a TGI (CCRF-CEM leukemia) greater than 100 µM and a GI50 (COLO 205 colon) of 1.75 µM. It also gave a TGI (COLO 205 colon) of 10.3 µM, a GI50 (DU-145 prostate) of 3.05 µM and a TGI (DU-145 prostate) of 51.6 µM. It also gave a GI50 (EKVX NSCLC) of 2.92 µM, a TGI (EKVX NSCLC) greater than 100 µM and a GI50 (HCC-2998 colon) of 2.78 µM. For the same compound, the TGI (HCC-2998 colon) was greater than 100 µM, the GI50 (HCT-116 colon) was 0.439 µM and the TGI (HCT-116 colon) was greater than 100 µM. The GI50 (HCT-15 colon) was 2.43 µM, the TGI (HCT-15 colon) was greater than 100 µM and the GI50 (HL-60(TB) leukemia) was 0.567 µM. The TGI (HL-60(TB) leukemia) was 42.9 µM, the GI50 (HOP-62 NSCLC) was 4.13 µM and the TGI (HOP-62 NSCLC) was greater than 100 µM. For the same compound, the GI50 (HOP-92 NSCLC) was 4.13 µM, the TGI (HOP-92 NSCLC) was greater than 100 µM and the GI50 (HT29 colon) was 1.23 µM. The TGI (HT29 colon) was 5.07 µM, the GI50 (IGROV1 ovarian) was 3.53 µM and the TGI (IGROV1 ovarian) was greater than 100 µM. It also gave a GI50 (K-562 leukemia) of 0.475 µM, a TGI (K-562 leukemia) greater than 100 µM and a GI50 (KM12 colon) of 1.54 µM. For the same compound, the TGI (KM12 colon) was greater than 100 µM, the GI50 (LOX IMVI melanoma) was 2.78 µM and the TGI (LOX IMVI melanoma) was greater than 100 µM. For the same compound, the GI50 (MALME-3M melanoma) was 1.57 µM, the TGI (MALME-3M melanoma) was greater than 100 µM and the GI50 (MCF7 breast) was 0.465 µM. For the same compound, the TGI (MCF7 breast) was greater than 100 µM, the GI50 (MDA-MB-231 breast) was 1.7 µM and the TGI (MDA-MB-231 breast) was 57.6 µM. It also gave a GI50 (MDA-MB-468 breast) of 0.429 µM, a TGI (MDA-MB-468 breast) greater than 100 µM and a GI50 (MOLT-4 leukemia) of 3.19 µM. For the same compound, the TGI (MOLT-4 leukemia) was greater than 100 µM, the GI50 (NCI-H226 lung) was 2.67 µM and the TGI (NCI-H226 lung) was 9.75 µM. It also gave a GI50 (NCI-H23 lung) of 3.44 µM, a TGI (NCI-H23 lung) greater than 100 µM and a GI50 (NCI-H460 lung) of 1.18 µM. It also gave a TGI (NCI-H460 lung) of 22.1 µM, a GI50 (NCI-H522 lung) of 1.08 µM and a TGI (NCI-H522 lung) of 3.96 µM. The GI50 (OVCAR-3 ovarian) was 0.601 µM, the TGI (OVCAR-3 ovarian) was 3.36 µM and the GI50 (OVCAR-4 ovarian) was 12.8 µM. The TGI (OVCAR-4 ovarian) was greater than 100 µM, the GI50 (OVCAR-5 ovarian) was 3.18 µM and the TGI (OVCAR-5 ovarian) was greater than 100 µM. It also gave a GI50 (OVCAR-8 ovarian) of 3.16 µM, a TGI (OVCAR-8 ovarian) of 28.1 µM and a GI50 (PC-3 prostate) of 1.86 µM. It also gave a TGI (PC-3 prostate) greater than 100 µM, a GI50 (RPMI-8226 leukemia) of 2.82 µM and a TGI (RPMI-8226 leukemia) greater than 100 µM. It also gave a GI50 (RXF 393 renal) of 2.3 µM, a TGI (RXF 393 renal) greater than 100 µM and a GI50 (SF-268 CNS) of 4.3 µM. For the same compound, the TGI (SF-268 CNS) was 86.2 µM, the GI50 (SF-295 CNS) was 1.5 µM and the TGI (SF-295 CNS) was 30.7 µM. It also gave a GI50 (SF-539 CNS) of 1.61 µM, a TGI (SF-539 CNS) of 4.82 µM and a GI50 (SK-MEL-28 melanoma) of 4.6 µM. For the same compound, the TGI (SK-MEL-28 melanoma) was greater than 100 µM, the GI50 (SK-MEL-5 melanoma) was 1.47 µM and the TGI (SK-MEL-5 melanoma) was 10.2 µM. It also gave a GI50 (SK-OV-3 ovarian) of 4.69 µM, a TGI (SK-OV-3 ovarian) greater than 100 µM and a GI50 (SN12C renal) of 3.61 µM. The TGI (SN12C renal) was greater than 100 µM, the GI50 (SNB-19 CNS) was 4.45 µM and the TGI (SNB-19 CNS) was greater than 100 µM. It also gave a GI50 (SNB-75 CNS) of 1.91 µM, a TGI (SNB-75 CNS) greater than 100 µM and a GI50 (SR leukemia) of 0.537 µM. For the same compound, the TGI (SR leukemia) was greater than 100 µM, the GI50 (SW-620 colon) was 0.537 µM and the TGI (SW-620 colon) was greater than 100 µM. For the same compound, the GI50 (T-47D breast) was 3.32 µM, the TGI (T-47D breast) was greater than 100 µM and the GI50 (TK-10 renal) was 6.48 µM. It also gave a TGI (TK-10 renal) greater than 100 µM, a GI50 (U251 CNS) of 3.61 µM and a TGI (U251 CNS) greater than 100 µM. For the same compound, the GI50 (UACC-257 melanoma) was 8.67 µM, the TGI (UACC-257 melanoma) was greater than 100 µM and the GI50 (UACC-62 melanoma) was 2.06 µM. The TGI (UACC-62 melanoma) was greater than 100 µM, the GI50 (UO-31 renal) was 4.51 µM and the TGI (UO-31 renal) was greater than 100 µM.
In the case of `COC(=O)CC1=C(C)/C(=C/c2[nH]c(-c3ccc[nH]3)cc2OC)N=C1C`, the GI50 (MDA-MB-468 breast) is reported as 0.162 µM and the TGI (MDA-MB-468 breast) is reported as 1.76 µM.
`CCS(=O)(=O)c1ccc(OC)c(Nc2ncc(-c3cccc(F)c3)o2)c1` was tested, and the GI50 (MDA-MB-468 breast) was greater than 25 µM and the TGI (MDA-MB-468 breast) was greater than 25 µM.
With `CC(C)(C)[Si](C)(C)OC1[C@@H](COC(=O)NC(=O)CCl)O[C@@H](n2cnc3c(N)ncnc32)[C@H]1O[Si](C)(C)C(C)(C)C` (some centres undefined) the GI50 (MDA-MB-468 breast) was 3.84 µM and the TGI (MDA-MB-468 breast) was 11.1 µM.
`COc1cc(C(=O)n2nc(N)c3c(C)cc(C)nc32)cc(OC)c1OC` showed a GI50 (MDA-MB-468 breast) of 2.92 µM and a TGI (MDA-MB-468 breast) greater than 100 µM.
In the case of `CCOCCOCCOCCOCCOCCOCCOCCOCCOCCO` (tested in a mixture with another compound), the GI50 (MDA-MB-468 breast) is reported as 0.372 µM and the TGI (MDA-MB-468 breast) is reported as 2.18 µM.
Work on `CC12O[C@H](C[C@@H](OC(=O)CCC(=O)O)[C@H]1O)n1c3ccccc3c3c4c(c5c6ccccc6n2c5c31)C(=O)NC4=O` yielded a GI50 (MDA-MB-468 breast) of 1.72 µM and a TGI (MDA-MB-468 breast) of 10.8 µM.
Work on `COc1ccc2nc3ccccc3c(NCCNCC(C)O)c2c1` (centres undefined) yielded a GI50 (MDA-MB-468 breast) of 0.3 µM and a TGI (MDA-MB-468 breast) of 0.953 µM.
`CCC(=O)Nc1nnc(Cc2ccc(OC)c(OC)c2)s1` gave a GI50 (MDA-MB-468 breast) greater than 100 µM and a TGI (MDA-MB-468 breast) greater than 100 µM.
In the case of `Cc1cc(N2CCOCC2)nc(NCc2cc(Nc3ccnc4cc(Cl)ccc34)ccc2F)n1`, the GI50 (MDA-MB-468 breast) is reported as 1.89 µM and the TGI (MDA-MB-468 breast) is reported as 3.91 µM.
In the case of `COc1cc(-c2ccc[nH]2)[nH]c1/C=C1\N=C(C)C(CC(=O)OCC(C)(C)C)=C1C`, the GI50 (MDA-MB-468 breast) is reported as 0.082 µM and the TGI (MDA-MB-468 breast) is reported as 1.19 µM.
With `CNc1cc(-c2cccc(OC(F)(F)F)c2)nc2ccc(N3CCCC3)cc12` the GI50 (MDA-MB-468 breast) was 2.11 µM and 1.83 µM and the TGI (MDA-MB-468 breast) was 3.87 µM and 3.49 µM.
Work on `CC/C=C\C[C@H]1C/C=C2/C(=O)C(Cl)=C[C@@H]2C/C=C\CCCC(=O)O1` yielded a GI50 (MDA-MB-468 breast) of 0.309 µM and a TGI (MDA-MB-468 breast) of 0.869 µM.
Work on `Oc1[nH]c2ccccc2c1C=Nc1ccc(-n2cncn2)cc1` yielded a GI50 (MDA-MB-468 breast) greater than 20.7 µM and a TGI (MDA-MB-468 breast) greater than 25 µM.

From PubChem BioAssay (NCI)
